One assay relates to calf thymus DNA. In words: DNA binding by visible absorption and CD spectra of DNA (P)-drug complex. Conditions: mole ratio DNA (P)/analogue = 10:1; 3b, 4b and 5b compared; 1.0×10^-5 M, pH 7. An excerpt: In FIG. 1, absorption (top) and circular dichroism (bottom) spectra in 0.01 M phosphate buffer (pH7) containing EDTA (10^-5 M) and Me2 SO (5%): 3b (...), 4b (---), 5b (--). Concentration of drug in each case was 1.0×10^-5 M. In this respect, they are almost indistinguishable from the known analogue 7-methoxyactinomycin D (5b), whose structure and physical properties we have previously reported. The absorption spectra of all these analogues in aqueous buffer are also almost superimposable. […] The absorption spectrum of the analogues above 240 nm is mainly due to the electronic configuration of the tricyclic chromophore. The CD spectrum in the same wavelength region is an indicator of peptide conformation in actinomycin analogues, because it is the peptide lactone ring that confers optical activity on the nearly planar chromophore. The nature of the CD spectra (3b, 4b and 5b) asserts that in these analogues there is an identical relationship between the chromophores and peptide lactones. This relationship is very important, because during binding to DNA, AMD and some analogues are known to rely on the cooperative role between the chromophore and the peptide lactones for their highly specific DNA-binding property.
Any change in the configurations of the peptide lactones on binding to DNA is generally expressed in the CD spectra of the analogue-DNA complexes. […] The changes in the visible absorption spectra of 3b, 4b and 5b and also their CD spectra observed after adding calf thymus DNA [mole ratio of DNA (P)/analogue=10:1] are identical (FIG. 2). In FIG. 2, the absorption (top) and CD spectra of the DNA (P)-drug complex (ratio 10:1). Concentrations, buffer and line types are as in FIG. 1.

A further assay has as its system DNA. In words: DNA-binding mode, covalent and noncovalent (statements).

For `Cc1c2oc3c(C)c(OCC4CO4)cc(C(=O)N[C@@H]4C(=O)N[C@H](C(C)C)C(=O)N5CCC[C@H]5C(=O)N(C)CC(=O)N(C)[C@@H](C(C)C)C(=O)O[C@@H]4C)c3nc-2c(C(=O)N[C@@H]2C(=O)N[C@H](C(C)C)C(=O)N3CCC[C@H]3C(=O)N(C)CC(=O)N(C)[C@@H](C(C)C)C(=O)O[C@@H]2C)c(N)c1=O` (stereo partly shown) [Compound 3b, 7-(2,3-Epoxypropoxy)actinomycin D], the “changes in visible absorption and CD spectra after adding calf thymus DNA” value in the assay with calf thymus DNA was “identical”. Besides, the “covalent binding to DNA” value in the assay with DNA (37° C. or higher, or longer incubation (~20 h)) is “can bind covalently to DNA”. Also, the “DNA-binding property relative to AMD” value in the assay with DNA (ambient temperature) is listed as “closely parallel to AMD”.

With `Cc1c2oc3c(C)c(OCC(O)CO)cc(C(=O)N[C@@H]4C(=O)N[C@H](C(C)C)C(=O)N5CCC[C@H]5C(=O)N(C)CC(=O)N(C)[C@@H](C(C)C)C(=O)O[C@@H]4C)c3nc-2c(C(=O)N[C@@H]2C(=O)N[C@H](C(C)C)C(=O)N3CCC[C@H]3C(=O)N(C)CC(=O)N(C)[C@@H](C(C)C)C(=O)O[C@@H]2C)c(N)c1=O` (stereo partly shown) [Compound 4b, 7-(2,3-Dihydroxypropoxy) actinomycin D], the “changes in visible absorption and CD spectra after adding calf thymus DNA” value in the assay with calf thymus DNA is reported as “identical”.

The values are drawn from US4514330A, “Carbon-7-substituted atinomycin D analogue” (Trustees of Boston University, priority 1983, dated 1985).
